Values of other authors as cited in patent EP0467998B1, “PEPTIDES FROM RETINOBLASTOMA GENE PRODUCTS AND ANTIBODIES THERETO” (BAYLOR COLLEGE OF MEDICINE, priority 1989, dated 1990).

Conditions: individual amino acid, Hopp and Woods (1981)

| Hydrophilicity Value | SMILES |
| --- | --- |
| -0.5 | C[C@H](N)C(=O)O [Ala] |
| 0.2 | NC(=O)C[C@H](N)C(=O)O [Asn] |
| 3.0 | N[C@@H](CC(=O)O)C(=O)O [Asp] |
| -1.0 | N[C@@H](CS)C(=O)O [Cys] |
| 3.0 | N[C@@H](CCC(=O)O)C(=O)O [Glu] |
| -0.5 | N[C@@H](Cc1c[nH]cn1)C(=O)O [His] |
| 3.0 | NCCCC[C@H](N)C(=O)O [Lys] |
| -1.3 | CSCC[C@H](N)C(=O)O [Met] |
| 0.3 | N[C@@H](CO)C(=O)O [Ser] |
| -0.4 | C[C@@H](O)[C@H](N)C(=O)O [Thr] |

More lines, now with the values behind:

| SMILES | Hydrophilicity Value |
| --- | --- |
| N=C(N)NCCC[C@H](N)C(=O)O [Arg] | 3.0 |
| NCC(=O)O [Gly] | 0.0 |
| CC[C@H](C)[C@H](N)C(=O)O [Ile] | -1.8 |
| N[C@@H](Cc1ccccc1)C(=O)O [Phe] | -2.5 |
| O=C(O)[C@@H]1CCCN1 [Pro] | 0.0 |
| N[C@@H](Cc1c[nH]c2ccccc12)C(=O)O [Trp] | -3.4 |
| N[C@@H](Cc1ccc(O)cc1)C(=O)O [Tyr] | -2.3 |
| CC(C)[C@H](N)C(=O)O [Val] | -1.5 |
